# Entries after “also recorded” stand apart in the source; their conditions may differ. Like-named read-outs stand apart in the source and are kept apart here.
# Columns and labels:
# [1] = system: 23 kDa heat shock protein gene promoter (hsp23-β-galactosidase hybrid gene); assay: Drosophila heat shock hybrid gene expression assay (colorimetric beta-galactosidase assay) in primary embryonic cells from transformed flies; settings: for FOLD INDUCTION OF B-GAL ACTIVITY: Experiment I, strain 700.2 embryonic cells, relative to nontreated cells
# Text: A representative hybrid gene in accordance with the above description includes a 23 kDa heat shock protein gene fragment beginning at the Pst I site 1.5 kb upstream from and extending through the transcription start site and the entire RNA leader region to a Pvu II site at codon 45 of the 23 kDa protein coding sequence, inserted upstream from a truncated (at codon 7 or 8) E. coli β-galactosidase gene. It addition, a 2.4-kb-long segment containing 3' nontranslated and nontranscribed sequences from a D. melanogaster 70 kDa heat shock protein gene is placed downstream from the β-galactosidase gene.
# For the experiments with teratogens described below, only the 700 lines (see Table 2) were used. These lines carry a hybrid gene controlled by a 554 nucleotide-long segment of the 23 kDa heat shock protein gene promoter.
# Preparation of embryos, cultures of primary cells, and incubation with teratogens
# 1. A creamy paste of yeast is placed on a piece of wet filter paper and such coated paper: deposited on 150 mm food plates. Embryos are then collected on these plates for 3 hours (inside a large fly cage). (For additional details, see the appended Materials and Methods section.)
# 2. The plates with the embryos are incubated further for 3.5 hours (embryos will reach the gastrulation stage).
# 3. The filter paper containing yeast is discarded. The plates are flooded with water, the embryos are brushed down, passed through a 1 mm (pore size) mesh and then collected on a 90 μm mesh.
# 4. Embryos are washed extensively with water. Subsequently they are picked up with a spatula and are placed into a solution of 10 ml chlorox/10 ml ethanol (95%). After a brief incubation, the embryos are transferred to a sintered glass funnel attached to a vacuum line and are washed with several volumes of sterile distilled water, No more than 2 minutes should elapse between the first exposure of the embryos to chlorox-ethanol solution and the beginning of the wash steps.
# 5. The embryos are then washed in 6 ml of culture medium. It is important to note that the embryos are not allowed to dry out during the wash procedure.
# 6. The wet embryos are transferred with a blunt spatula into a homogenizer containing 7 ml of culture medium. (Alternatively, they can be washed down into the homogenizer with medium.)
# 7. Three gentle passes are made with the loose fitting pestle.
# 8. Cell aggregates are broken up by repeated pipetting with a 1 ml pipette, and the cell suspension is passed through a 53 μm mesh.
# 9. The filtrate is collected in a 15 ml sterile disposable centrifuge tube and spun at 1800 rpm for 4 minutes (at room temperature).
# 10. The supernatant is decanted, and the cells are washed once more with 4 ml of medium.
# 11. The cells are finally suspended in 4 ml medium by repeated pipetting with a 1 ml pipette and are counted on a hemocytometer.
# 12. The cells are plated in 35 mm dishes at a density of 3.2×10^6cells per 2 ml of medium.
# 13. Forty-five minutes later the medium is removed from each dish, and 2 ml of fresh medium containing the chemical to be tested for teratogenicity is added. The culture is then incubated at 22° C. for 20 hrs. […] The cells are subsequently processed for the β-galactosidase assay (see below).
# 1. Cells in 35 mm dishes are washed once with phosphate-buffered saline and are then transferred to 15 ml centrifuge tubes.
# 2. The cells are collected by centrifugation (clinical centrifuge, 2000 rpm, 5 min) and are taken up in 350 μl of Z buffer (defined below) containing 0.5% of Nonidet NP40. The cells are lysed by repeated pipetting. Lysates are transferred to 1.5 ml Eppendorf tubes.
# 3. After a 5 minute spin (in the Eppendorf centrifuge) the supernatants are transferred to another set of tubes.
# 4. To 200 μl of this extract, 275 μl of substrate solution ONPG (4 mg/ml) in Z-buffer is added. The assays are run with straight as well as with diluted extract samples.
# 5. The reactions are incubated at 37° C. for 30 min.
# [2] = use by pregnant women; cited from earlier work
# small heat shock genes = settings: ecdysterone added to the medium; Ireland et al. 1982; cited from earlier work
# [3] = system: 23 kDa heat shock protein gene promoter (hsp23-β-galactosidase hybrid gene) in S3 cells; assay: Hybrid gene (23 kDa heat shock protein-β-galactosidase) activity in transfected S3 cells; type: cell-based, Drosophila melanogaster; settings: for E. coli-specific B-galactosidase, + ecdysterone: 3 μM, ELISA
# Text: The Drosophila melanogaster 23 kDa heat shock protein gene has been cloned and characterized by Voellmy et al. (Cell 23:261-270, 1981). Segments containing extensive 5' nontranscribed sequences from the 23 kDa heat shock protein gene, the RNA leader region, and part of the protein-coding region were linked in frame to an E. coli β-galactosidase gene. The resulting constructs encode a hybrid protein with β-galactosidase activity that is made under the control of the linked heat shock gene sequences (Lawson, R., et al., Dev. Biol. […], 1985). These constructs were introduced into Drosophila melanogaster S3 cells (an established cell line) by transfection (Lawson, R., et al., Mol. Gen. Genet. 198:116-124, 1984).
# The construction of 23 kDa heat shock protein-β-galactosidase hybrid genes had been described (Lawson, R., et al., Dev. Biol. 110:321-330, 1985). The structure of a representative construct, p523/35, is shown in FIG. 4 (modified from Mestril, R., et al., EMBO J. 5(7):1667-1673, 1986). […] Hybrid gene activity was assessed in cell extracts both by a colorimetric enzymatic assay and by ELISA using antibodies specific for E. coli β-galactosidase (Lawson, R., et al., Dev. Biol. 110:321-330, 1985).
# Derivatives of this basic construct that contained 23 kDa heat shock gene promoter sequences of different lengths were prepared, and their activity was tested using heat shock in transfected S3 cells (Mestril, R., et al., EMBO J. 4:2971-2976, Mestril, R., et al., EMBO J. 5:1667-1673, 1986).
# A list of the cp20.1 derivatives of hybrid genes with 23 kDA heat shock protein gene promoter segments of different lengths is shown in Table 1. The functionality of the genes was tested in cultured Drosophila melanogaster S3 cells. Transfected cells were either heat-treated (not shown), exposed for one day at 3 μM ecdysterone, or not treated. Levels of β-galactosidase in extracts were measured by the ELISA procedure described in Mestril et al., EMBO J. 5:1667-1673, 1986.
# Levels of Bgalactosidase were measured in cell extracts using the ELISA
# protocol described in Mestril et al., 1986 (Mestril,R., Schiller,P.,
# Amin,J., Klapper,H., Ananthan,J. and Voellmy,R. (1986) EMBO J.
# [4] = system: 23 kDa heat shock protein gene promoter (hsp23-β-galactosidase hybrid gene) in S3 cells; settings: following exposure to ecdysterone; Lawson et al. 1985; Mestril et al.; cited from earlier work
# [5] = shown in animal experiments; cited from earlier work
# [6] = Drosophila melanogaster, 20 h, read-out: FOLD INDUCTION OF B-GAL ACTIVITY
# [7] = Drosophila melanogaster, 20 h, read-out: Fold Induction of B-Gal Activity
compound,measurement,setting,value
CCO [ETHYL ALCOHOL],fold induction at 160000 µM,[1]; [6],1.2
O=C1CCC(N2C(=O)c3ccccc3C2=O)C(=O)N1 (stereo not shown) [Thalidomide],synthesis of β-galactosidase in primary embryonic cells (in words),[1],directs the synthesis of β-galactosidase
same,fold induction at 1000 µM,[1]; [7],2.73
same,babies suffering from phocomelia,[2],"~10,000 babies"
CC(C)(O)CC[C@@H](O)[C@](C)(O)[C@H]1CC[C@@]2(O)C3=CC(=O)[C@@H]4C[C@@H](O)[C@@H](O)C[C@]4(C)[C@H]3CC[C@]12C [ecdysterone],fold induction at 10 µM,[1]; [6],2
same,activation of the small heat shock genes (in words),small heat shock genes,activation of the genes
same,"E. coli-specific B-galactosidase, + ecdysterone","[3]; 63 bp 5' nontranscribed segment, one day, 0.0 without ecdysterone",0.1
same,"E. coli-specific B-galactosidase, + ecdysterone","[3]; 147 bp 5' nontranscribed segment, one day",0.1
same,"E. coli-specific B-galactosidase, + ecdysterone","[3]; 197 bp 5' nontranscribed segment, one day",0.1
same,"E. coli-specific B-galactosidase, + ecdysterone","[3]; 275 bp 5' nontranscribed segment, one day",0.3
same,"E. coli-specific B-galactosidase, + ecdysterone","[3]; 295 bp 5' nontranscribed segment, one day",0.6
same,"E. coli-specific B-galactosidase, + ecdysterone","[3]; 333 bp 5' nontranscribed segment, one day, 0.0 without ecdysterone",1.0
same,"E. coli-specific B-galactosidase, + ecdysterone","[3]; 363 bp 5' nontranscribed segment, one day",1.1
same,"E. coli-specific B-galactosidase, + ecdysterone","[3]; 379 bp 5' nontranscribed segment, one day, 0.1 without ecdysterone",2.0
same,"E. coli-specific B-galactosidase, + ecdysterone","[3]; 554 bp 5' nontranscribed segment, one day",1.0
same,hybrid gene activity of constructs (in words),"[3]; several constructs, longest promoter segments, 3 μM ecdysterone, one day, inactive in untreated cells",active
same,synthesis of β-galactosidase in transfected S3 cells (in words),[4],produced E. coli-specific β-galactosidase; also recorded: directed the synthesis of β-galactosidase
CC/C(=C(/CC)c1ccc(O)cc1)c1ccc(O)cc1 [DIETHYL STILBOSTEROL],fold induction at 10 µM,[1]; [6],7
O=[As](O)(O)O [ARSENATE],FOLD INDUCTION OF B-GAL ACTIVITY,"[1]; 0.2 mM, 20 hrs",8 FOLD
C[S+](C)[O-] [DIMETHYL SULFOXIDE],fold induction at 1000 µM,[1]; [6],1
Nc1ncn([C@H]2C[C@H](O)[C@@H](CO)O2)c(=O)n1 [5-DEOXY-2' AZACYTIDINE],FOLD INDUCTION OF B-GAL ACTIVITY,"[1]; 0.01 mM, 20 hrs",4 FOLD
"O=C1NC(=O)C(c2ccccc2)(c2ccccc2)N1 [DIPHENYLHYDANTOIN, DIPHENYL-HYDANTOIN]",fold induction at 100 µM,[1]; [6],2
CC(=O)Oc1ccccc1C(=O)O [ACETYL SALICYCLIC ACID],CLASS (teratogen T / nonteratogen NT),[5],weak T
same,FOLD INDUCTION OF B-GAL ACTIVITY,"[1]; 1.0 mM, 20 hrs",1.5 FOLD
CC(=O)[C@H]1CC[C@H]2[C@@H]3CCC4=CC(=O)CC[C@]4(C)[C@H]3CC[C@]12C [PROGESTERONE],fold induction at 10 µM,[1]; [6],1
[Cl][Hg][Cl] [Hg Cl2],FOLD INDUCTION OF B-GAL ACTIVITY,"[1]; 0.005 mM, 20 hrs",3 FOLD
[Pb] [Lead],Fold Induction of B-Gal Activity,"[1]; Experiment II, 2.5 mM, 20 hrs, relative to nontreated cells (see Table 3)",15.78 Fold
same,synthesis of β-galactosidase in primary embryonic cells (in words),[1]; primary embryonic cells from transformed flies,directs the synthesis of β-galactosidase
CC1=C(/C=C/C(C)=C/C=C/C(C)=C/C(=O)O)C(C)(C)CCC1 [RETINOIC ACID (ALL TRANS)],fold induction at 50 µM,[1]; [6],5
O=c1ccc2ccccc2o1 [COUMARIN],fold induction at 1000 µM,[1]; [6],5
same,hybrid gene activity in S3 cells (in words),[3],did not induce hybrid gene activity
[Cl][Cd][Cl] [Cd Cl2],FOLD INDUCTION OF B-GAL ACTIVITY,"[1]; 0.25 mM, 20 hrs",7 FOLD
CN1C(=O)CN=C(c2ccccc2)c2cc(Cl)ccc21 [Valium],fold induction at 1000 µM,[1]; [7],6.5
Cn1c(=O)c2c(ncn2C)n(C)c1=O [Caffeine],fold induction at 1000 µM,[1]; [7],1.02

# Reference: patent publication US5346812A, “Teratogen assay” (priority 1992, dated 1994)
